Values of other authors as cited in US9278365B2, “Volatile material dispenser and method of emitting a volatile material” (priority 2014, dated 2016).

log P (octanol/water partition coefficient) [Log P]	solubility [Log P]	Compound
4.3	–	CC(=O)O[C@@H]1C[C@H]2CC[C@]1(C)C2(C)C (racemic) [iso-bornyl acetate]
1.11	–	Cc1ncsc1CCO [sulfurol]
4.4	–	CC(C=O)Cc1ccc(C(C)(C)C)cc1 (stereo not drawn) [lilial]
2	–	OC/C=C/c1ccccc1 [cinnamic alcohol]
–	2.1	COC(=O)c1ccccc1 [methyl benzoate]
1.29	–	methy cyclopetenone
